Where a name gives a salt, the structure may show the parent alone.
Experiments:
[1] = system: ENR+CD organoids (ISC to Paneth cell differentiation); assay: Primary screen: basal (non-stimulated) lysozyme secretion LYZ.NS, 2.5-D 384-well ENR+CD organoid differentiation; assay type: cell-based, mouse; conditions: primary screen; for Z.LYZ.NS: standard z score
Text: (§1) High-throughput screening.

ENR+CD organoids = assay: Primary screen: ATP (CellTiter-Glo 3D, CTG) cell number/viability, 2.5-D 384-well ENR+CD organoids; conditions: primary screen; for Z.CTG: standard z score;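 on all read-outs here: compounds given at plating and again on day 3 over a 6-day differentiation from ENR+CV stem-cell-enriched precursors, ATP measured on day 6, plate median as control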
[2] = system: ENR+CD organoids (ISC to Paneth cell differentiation); assay: Primary screen: CCh-stimulated lysozyme secretion LYZ.S, 2.5-D 384-well ENR+CD organoid differentiation; assay type: cell-based, mouse; conditions: primary screen
Text: as §1

Compound | Dose.FC.LYZ.NS ([1]; dose 0.08 uM) | Dose.FC.LYZ.NS ([1]; dose 0.40 uM) | Dose.FC.LYZ.NS ([1]; dose 2.00 uM) | Dose.FC.LYZ.NS ([1]; dose 10.00 uM) | Z.LYZ.NS ([1]; dose 0.08 uM) | Z.LYZ.NS ([1]; dose 0.40 uM) | Z.LYZ.NS ([1]; dose 2.00 uM) | Z.LYZ.NS ([1]; dose 10.00 uM) | Dose.FC.CTG (ENR+CD organoids; dose 0.08 uM) | Dose.FC.CTG (ENR+CD organoids; dose 0.40 uM) | Dose.FC.CTG (ENR+CD organoids; dose 2.00 uM) | Dose.FC.CTG (ENR+CD organoids; dose 10.00 uM) | Z.CTG (ENR+CD organoids; dose 0.08 uM) | Z.CTG (ENR+CD organoids; dose 0.40 uM) | Z.CTG (ENR+CD organoids; dose 2.00 uM) | Z.CTG (ENR+CD organoids; dose 10.00 uM) | Dose.FC.LYZ.S ([2]; dose 0.08 uM) | Dose.FC.LYZ.S ([2]; dose 0.40 uM) | Dose.FC.LYZ.S ([2]; dose 2.00 uM) | Dose.FC.LYZ.S ([2]; dose 10.00 uM)
CCOC(=O)c1ccc(NC2CCCCC2)c(N)c1 [Ferrostatin-1 (Fer-1)] | 0.108 log2 fold change | 0.116 log2 fold change | 0.070 log2 fold change | 0.013 log2 fold change | 0.944 | 1.012 | 0.610 | 0.116 | 0.312 log2 fold change | 0.453 log2 fold change | 0.215 log2 fold change | −0.046 log2 fold change | 0.745 | 1.082 | 0.514 | −0.109 | 0.120 log2 fold change | 0.207 log2 fold change | 0.092 log2 fold change | −0.018 log2 fold change
CCCCCCCCc1ccc(CCC(N)(CO)CO)cc1.Cl [Fingolimod (FTY720) HCl] | −0.054 log2 fold change | 0.071 log2 fold change | 0.021 log2 fold change | −0.225 log2 fold change | −0.471 | 0.616 | 0.186 | −1.961 | −0.080 log2 fold change | 0.103 log2 fold change | −0.468 log2 fold change | −1.304 log2 fold change | −0.191 | 0.245 | −1.119 | −3.116 | −0.046 log2 fold change | 0.077 log2 fold change | −0.060 log2 fold change | −0.362 log2 fold change
CC(C)n1c(/C=C/C(O)CC(O)CC(=O)O)c(-c2ccc(F)cc2)c2ccccc21 (stereo not drawn) [Fluvastatin Sodium] | 0.112 log2 fold change | −0.146 log2 fold change | −0.203 log2 fold change | −0.159 log2 fold change | 0.979 | −1.275 | −1.764 | −1.388 | −0.161 log2 fold change | −0.482 log2 fold change | −1.111 log2 fold change | −1.761 log2 fold change |  |  |  |  | 0.026 log2 fold change | −0.177 log2 fold change | −0.293 log2 fold change | −0.267 log2 fold change
COCCCC/C(=N\OCCN)c1ccc(C(F)(F)F)cc1 [Fluvoxamine maleate] | 0.074 log2 fold change | 0.087 log2 fold change | 0.089 log2 fold change | −0.027 log2 fold change | 0.642 | 0.756 | 0.778 | −0.235 | 0.115 log2 fold change | 0.254 log2 fold change | 0.211 log2 fold change | 0.138 log2 fold change |  |  |  |  | 0.114 log2 fold change | 0.172 log2 fold change | 0.108 log2 fold change | 0.012 log2 fold change
COc1ccc(C[C@@H](C)NC[C@H](O)c2ccc(O)c(NC=O)c2)cc1.COc1ccc(C[C@@H](C)NC[C@H](O)c2ccc(O)c(NC=O)c2)cc1.O=C(O)/C=C/C(=O)O [Formoterol Hemifumarate] | 0.145 log2 fold change | 0.073 log2 fold change | 0.048 log2 fold change | 0.013 log2 fold change | 1.263 | 0.638 | 0.420 | 0.114 | 0.294 log2 fold change | 0.265 log2 fold change | 0.242 log2 fold change | 0.253 log2 fold change | 0.703 | 0.633 | 0.578 | 0.604 | 0.206 log2 fold change | 0.293 log2 fold change | 0.090 log2 fold change | 0.011 log2 fold change
C=C[C@@]1(C)CC(=O)[C@]2(O)[C@@]3(C)[C@@H](O)CCC(C)(C)[C@@H]3[C@H](O)[C@H](OC(C)=O)[C@@]2(C)O1 [Forskolin] | −0.007 log2 fold change | 0.159 log2 fold change | 0.191 log2 fold change | 0.219 log2 fold change | −0.058 | 1.381 | 1.661 | 1.905 | −0.213 log2 fold change | −0.175 log2 fold change | −0.330 log2 fold change | −0.119 log2 fold change |  |  |  |  | −0.004 log2 fold change | 0.237 log2 fold change | 0.102 log2 fold change | 0.128 log2 fold change
COc1cc(Nc2ncc(F)c(Nc3ccc4c(n3)N(COP(=O)(O)O)C(=O)C(C)(C)O4)n2)cc(OC)c1OC [Fostamatinib (R788)] | 0.119 log2 fold change | −0.025 log2 fold change | −0.099 log2 fold change | −0.234 log2 fold change | 1.033 | −0.217 | −0.860 | −2.036 | 0.232 log2 fold change | −0.052 log2 fold change | −0.231 log2 fold change | −0.881 log2 fold change | 0.554 | −0.123 | −0.552 | −2.105 | 0.235 log2 fold change | 0.156 log2 fold change | −0.015 log2 fold change | −0.350 log2 fold change
C[C@]12CC[C@@H]3c4ccc(O)cc4C[C@@H](CCCCCCCCC[S+]([O-])CCCC(F)(F)C(F)(F)F)[C@H]3[C@@H]1CC[C@@H]2O (stereo partly drawn) [Fulvestrant] | 0.057 log2 fold change | −0.050 log2 fold change | 0.000 log2 fold change | −0.043 log2 fold change | 0.500 | −0.432 | 0.003 | −0.376 | 0.119 log2 fold change | −0.063 log2 fold change | 0.142 log2 fold change | −0.204 log2 fold change |  |  |  |  | 0.051 log2 fold change | −0.049 log2 fold change | −0.024 log2 fold change | −0.150 log2 fold change
